Laboratory results from patent US5462744A, “Transdermal system for the administration of pharmacological compounds under pH-controlled conditions” (Boehringer Ingelheim KG, priority 1990, dated 1995).
Where “and” joins values, the source holds several entries; their conditions need not be identical. Equal values may be shown once. Entries after “also recorded” stand apart in the source; their conditions may differ.

Key:
[1] = pH of the skin surface underneath the system after 5 days' wearing, surface pH electrode (FIG. 6); assay type: in vivo, human; settings: in the polymethacrylate matrix
Excerpt: The systems tested differ in their concentration of citric acid in the polymethacrylate matrix. It is clear that only a citric acid concentration of more than 1% can bring about any significant change in the surface pH of the skin. The words "values 1, 2 and 3" in FIG. 7 refer to test subjects.

[2] = Permeability of pH-modified clenbuterol CPA through human skin (Franz cell release apparatus); assay type: in vitro ADME
Method: Permeability of pH-modified clenbuterol CPA through human skin:
Composition of the CPA's:
Polymethacrylate 90% 90%
A Franz cell was used as the release apparatus. This is a conventional method of testing the release of drugs from pharmaceutical formulations. Samples were taken after 24 hours and 48 hours and the clenbuterol content was determined.

[3] = Flux rate of clenbuterol through human skin depending on pH (FIG. 9); assay type: in vitro ADME; settings: pH range 6.0 to 8.5 versus higher and lower pH
Excerpt: The flux rate of an active substance through the skin is defined as the quantity of active substance per unit of area of the skin and per unit of time and is normally given in [μg/cm^2.h].
Curve B illustrates the water solubility of the substance depending on the pH value [mg/ml]. […] (The right-hand ordinate in FIG. 9 is shown logarithmically). [μg/cm^2. h]

[4] = transdermal administration, prior practice; cited from earlier work

| SMILES | citric acid concentration that brings about significant change in the surface pH of the skin [1] | diffusion rate, alkaline versus acid pH ([2]; pH 10.0 vs pH 3.5) | Clenbuterol Diffusion after 24 hours ([2]; pH-value 10.0 (5% Na2CO3), 24 hours, 5% clenbuterol in polymethacrylate) | Clenbuterol Diffusion after 48 hours ([2]; pH-value 10.0 (5% Na2CO3), 48 hours, 5% clenbuterol in polymethacrylate) | flux rate depending on pH [3] | constancy of blood level values [4] |
| --- | --- | --- | --- | --- | --- | --- |
| O=C(O)CC(O)(CC(=O)O)C(=O)O [Citric acid, citric acid] | more than 1% | – | – | – | – | – |
| CC(C)(C)NCC(O)c1cc(Cl)c(N)c(Cl)c1 (stereo not drawn) [Clenbuterol] | – | a higher diffusion rate is found at an alkaline pH than at an acid pH | 7.8 μg/cm^2 and 11.44 μg/cm^2 and 9.84 μg/cm^2 | 21.7 μg/cm^2 and 27.3 μg/cm^2 and 24.2 μg/cm^2 | reaches a maximum in the pH range specified above, but decreases sharply at higher and lower pH levels; also recorded: reduced drastically outside the pH range specified | has not hitherto resulted in constant blood level values |
